Experimental data reported in patent US7973075B2, “Kainate receptor-selective epimeric analogs of dysiherbaine” (priority 2007, dated 2011).

Experiments:
[1] = target: T1, GluR5-2b (Rattus norvegicus, UniProt P22756); test: Radioligand binding ([3H]kainate displacement), Example 2
T1 construct: expressed in transfected cells; host or cells: HEK-293-T/17
Experimental: Radioligand binding. Membrane preparations from HEK-293-T/17 cells were prepared and used in radioligand binding assays as described previously (Sanders et al., 2005). Unlabeled analogs were used to displace [3H]kainate (10-20 nM, PerkinElmer Life and Analytical Sciences, Boston, Mass.) or [3H]AMPA (20 nM, PerkinElmer Life and Analytical Sciences, Boston, Mass.) from KARs and AMPARs, respectively. Nonspecific binding was determined in the presence of 1 mM glutamate. After 1 hour incubation at 4° C., samples were harvested by rapid filtration onto Whatman GF/C membranes. Upon addition of scintillation fluid, membranes were incubated for 1 hour at room temperature. A Beckman LS5000TD scintillation counter was used for quantification (Beckman Coulter Inc., Fullerton, Calif.). Data were plotted and fit with a one-site competition curve with fixed minima and maxima using Prism 4 (GraphPad Software, Inc). Ki's were calculated with the Cheng-Prusoff equation using the determined IC5o values and the radioligand Kd. Data were plotted and fit with a one-site competition curve with fixed minima (0) and maxima (100) (Prism4, GraphPad Software, Inc.). […]
The pharmacological profiles of the Group I analogs, 8-deoxy-neoDH and 9-deoxyneoDH, were analyzed initially in radioligand binding experiments with expressed recombinant AMPA and kainate receptor subunits. […]

[2] = target: T2, GluR6 (Rattus norvegicus, UniProt P42260); test: Patch-clamp recordings from transfected HEK 293 cells, Example 1; type: cell-based; conditions: Example 1, FIG. 5
T2 construct: expressed in transfected cells; HEK 293 (patch clamp)
T2 sequence (P42260 32-908): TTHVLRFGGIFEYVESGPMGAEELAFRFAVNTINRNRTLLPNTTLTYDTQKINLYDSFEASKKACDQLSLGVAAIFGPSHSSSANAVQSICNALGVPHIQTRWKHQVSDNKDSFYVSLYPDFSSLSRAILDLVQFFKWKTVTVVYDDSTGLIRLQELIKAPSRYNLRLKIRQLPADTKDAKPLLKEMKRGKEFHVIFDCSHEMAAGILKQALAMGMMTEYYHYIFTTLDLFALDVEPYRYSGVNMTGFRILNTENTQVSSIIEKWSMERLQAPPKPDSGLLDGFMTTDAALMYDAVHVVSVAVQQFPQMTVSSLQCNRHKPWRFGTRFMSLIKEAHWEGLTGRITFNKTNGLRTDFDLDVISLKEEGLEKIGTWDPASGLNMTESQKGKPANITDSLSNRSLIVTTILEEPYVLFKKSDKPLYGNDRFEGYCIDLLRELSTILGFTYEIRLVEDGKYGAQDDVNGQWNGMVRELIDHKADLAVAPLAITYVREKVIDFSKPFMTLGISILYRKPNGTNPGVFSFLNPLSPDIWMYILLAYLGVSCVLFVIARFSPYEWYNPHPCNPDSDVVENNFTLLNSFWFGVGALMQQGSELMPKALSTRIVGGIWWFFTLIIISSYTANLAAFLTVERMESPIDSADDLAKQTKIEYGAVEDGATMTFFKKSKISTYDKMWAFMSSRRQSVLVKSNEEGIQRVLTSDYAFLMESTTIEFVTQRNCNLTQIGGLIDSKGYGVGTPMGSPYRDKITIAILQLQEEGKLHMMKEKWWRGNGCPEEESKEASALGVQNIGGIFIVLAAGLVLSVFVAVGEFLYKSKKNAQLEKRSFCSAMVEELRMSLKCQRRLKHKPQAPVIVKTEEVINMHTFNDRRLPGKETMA
Experimental: Non-specific binding was defined in the presence of 1 mM glutamate. The effect of these analogs on electrophysiology was assessed as follows. HEK 293 cells were transfected with receptor cDNAs in combination with eGFP cDNA. Patch-clamp recordings from transfected cells were made 24-72 hours later using a fast application system described previously (Swanson et al., NEURON 1997; 19:913-26). (See FIG. 3.)
The effect of these analogs on electrophysiology also was assessed as described above. […] The results further indicate that the C8 and C9 substituents are necessary for binding to all AMPA and KAR subunits except for GluR5 subunits. The C9 polar group must be present and in the correct spatial orientation for high-affinity GluR5 subunit binding. Inter-domain contacts mediated by residue 721S are critical determinants of binding affinity. The epimer analog 9-deoxy-neoDH mimics the binding affinity of the di-deoxy analog MSVIII-19, but acts as an agonist rather than an antagonist.

[3] = target: T2, GluR6; conditions: Table 1; comparison value of MSVIII-19 (Sanders et al., 2005); read-out: GluR6 binding affinity (displacement of [3H]kainate); cited from earlier work
[4] = target: T3, GluR1 (Rattus norvegicus, UniProt P19490); conditions: Table 1; comparison value of MSVIII-19 (Sanders et al., 2005); read-out: GluR1 binding affinity (displacement of [3H]AMPA); cited from earlier work
T3 construct: expressed in transfected cells; host or cells: COS-7 or HEK-T/17
T3 sequence (P19490 19-907 isoform P19490-2 limits assumed): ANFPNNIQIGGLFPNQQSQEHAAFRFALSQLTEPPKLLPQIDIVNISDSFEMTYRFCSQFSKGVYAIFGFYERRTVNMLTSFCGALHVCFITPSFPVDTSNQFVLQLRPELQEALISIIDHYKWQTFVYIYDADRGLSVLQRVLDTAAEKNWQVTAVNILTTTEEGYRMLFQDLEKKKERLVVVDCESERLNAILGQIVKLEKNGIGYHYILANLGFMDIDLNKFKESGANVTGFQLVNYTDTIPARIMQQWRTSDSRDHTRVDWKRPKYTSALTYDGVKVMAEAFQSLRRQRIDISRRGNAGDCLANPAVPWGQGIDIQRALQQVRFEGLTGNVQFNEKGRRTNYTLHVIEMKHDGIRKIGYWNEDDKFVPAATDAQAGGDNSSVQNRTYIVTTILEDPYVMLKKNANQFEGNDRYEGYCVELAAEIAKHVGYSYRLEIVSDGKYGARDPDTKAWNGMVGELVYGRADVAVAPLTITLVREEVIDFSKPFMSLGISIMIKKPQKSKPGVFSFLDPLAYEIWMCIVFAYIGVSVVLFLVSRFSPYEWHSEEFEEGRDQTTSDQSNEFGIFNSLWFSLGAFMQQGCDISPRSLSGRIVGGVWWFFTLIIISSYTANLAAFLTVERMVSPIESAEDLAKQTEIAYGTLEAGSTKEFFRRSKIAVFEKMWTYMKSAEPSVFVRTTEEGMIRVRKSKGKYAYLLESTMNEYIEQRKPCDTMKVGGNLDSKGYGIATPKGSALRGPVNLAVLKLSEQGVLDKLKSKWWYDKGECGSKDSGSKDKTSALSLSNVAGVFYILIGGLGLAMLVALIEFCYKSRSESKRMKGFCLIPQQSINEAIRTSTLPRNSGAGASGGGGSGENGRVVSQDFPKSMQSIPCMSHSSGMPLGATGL

[5] = target: T4, GluR5-2a (Rattus norvegicus, UniProt P22756, DEL402-416); conditions: Sanders et al., 2005; cited from earlier work
T4 construct: expressed in transfected cells; host or cells: HEK-293-T/17
T4 sequence (P22756 with tags, fused parts or gaps isoform P22756-2 limits assumed, stated change not applied): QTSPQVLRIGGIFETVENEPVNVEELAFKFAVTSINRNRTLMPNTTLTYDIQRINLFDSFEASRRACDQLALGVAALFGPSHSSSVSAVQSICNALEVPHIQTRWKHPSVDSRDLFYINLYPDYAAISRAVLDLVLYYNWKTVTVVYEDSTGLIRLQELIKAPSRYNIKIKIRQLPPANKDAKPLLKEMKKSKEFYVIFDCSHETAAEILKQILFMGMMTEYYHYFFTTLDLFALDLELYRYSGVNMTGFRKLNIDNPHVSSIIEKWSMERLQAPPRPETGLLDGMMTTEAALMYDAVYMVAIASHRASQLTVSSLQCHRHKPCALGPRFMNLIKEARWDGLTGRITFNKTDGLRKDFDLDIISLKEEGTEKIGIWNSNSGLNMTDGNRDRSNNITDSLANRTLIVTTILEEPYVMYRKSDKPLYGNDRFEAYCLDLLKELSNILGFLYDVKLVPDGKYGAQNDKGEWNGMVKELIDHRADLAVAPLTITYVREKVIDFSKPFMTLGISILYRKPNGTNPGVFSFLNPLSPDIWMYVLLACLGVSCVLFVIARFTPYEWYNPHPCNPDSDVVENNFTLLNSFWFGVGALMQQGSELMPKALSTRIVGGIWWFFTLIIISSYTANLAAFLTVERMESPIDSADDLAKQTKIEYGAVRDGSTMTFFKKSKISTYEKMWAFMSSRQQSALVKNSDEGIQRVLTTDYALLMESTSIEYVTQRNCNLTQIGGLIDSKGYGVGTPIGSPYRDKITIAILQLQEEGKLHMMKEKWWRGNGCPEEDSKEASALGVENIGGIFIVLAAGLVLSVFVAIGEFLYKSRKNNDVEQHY

[6] = target: T5, GluR2(i) (Rattus norvegicus, UniProt P19491); conditions: Sanders et al., 2005; cited from earlier work
T5 construct: expressed in transfected cells; host or cells: HEK-293-T/17
T5 sequence (P19491 22-883 isoform P19491-2 limits assumed): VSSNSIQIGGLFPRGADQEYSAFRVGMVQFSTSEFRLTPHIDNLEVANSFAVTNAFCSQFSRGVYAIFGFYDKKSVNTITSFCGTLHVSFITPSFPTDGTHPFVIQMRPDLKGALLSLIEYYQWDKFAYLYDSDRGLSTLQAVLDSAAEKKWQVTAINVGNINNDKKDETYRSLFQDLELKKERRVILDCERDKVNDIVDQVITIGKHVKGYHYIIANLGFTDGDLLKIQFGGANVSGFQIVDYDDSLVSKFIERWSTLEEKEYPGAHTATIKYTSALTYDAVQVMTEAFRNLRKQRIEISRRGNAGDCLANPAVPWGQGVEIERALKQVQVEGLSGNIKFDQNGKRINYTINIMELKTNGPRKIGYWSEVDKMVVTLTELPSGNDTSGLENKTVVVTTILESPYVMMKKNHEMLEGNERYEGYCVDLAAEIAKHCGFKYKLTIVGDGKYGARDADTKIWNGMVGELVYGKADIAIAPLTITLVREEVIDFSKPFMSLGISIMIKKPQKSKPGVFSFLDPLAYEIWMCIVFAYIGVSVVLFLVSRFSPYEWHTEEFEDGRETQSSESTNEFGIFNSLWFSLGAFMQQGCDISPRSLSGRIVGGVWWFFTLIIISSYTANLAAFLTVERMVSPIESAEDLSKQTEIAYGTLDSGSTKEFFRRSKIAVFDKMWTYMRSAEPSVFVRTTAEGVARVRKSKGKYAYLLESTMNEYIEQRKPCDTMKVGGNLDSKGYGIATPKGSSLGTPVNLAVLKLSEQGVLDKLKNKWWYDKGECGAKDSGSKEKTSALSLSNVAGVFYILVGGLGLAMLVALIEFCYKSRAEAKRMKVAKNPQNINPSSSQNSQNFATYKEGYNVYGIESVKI

T1 sequence (P22756 31-905 isoform P22756-2 limits assumed): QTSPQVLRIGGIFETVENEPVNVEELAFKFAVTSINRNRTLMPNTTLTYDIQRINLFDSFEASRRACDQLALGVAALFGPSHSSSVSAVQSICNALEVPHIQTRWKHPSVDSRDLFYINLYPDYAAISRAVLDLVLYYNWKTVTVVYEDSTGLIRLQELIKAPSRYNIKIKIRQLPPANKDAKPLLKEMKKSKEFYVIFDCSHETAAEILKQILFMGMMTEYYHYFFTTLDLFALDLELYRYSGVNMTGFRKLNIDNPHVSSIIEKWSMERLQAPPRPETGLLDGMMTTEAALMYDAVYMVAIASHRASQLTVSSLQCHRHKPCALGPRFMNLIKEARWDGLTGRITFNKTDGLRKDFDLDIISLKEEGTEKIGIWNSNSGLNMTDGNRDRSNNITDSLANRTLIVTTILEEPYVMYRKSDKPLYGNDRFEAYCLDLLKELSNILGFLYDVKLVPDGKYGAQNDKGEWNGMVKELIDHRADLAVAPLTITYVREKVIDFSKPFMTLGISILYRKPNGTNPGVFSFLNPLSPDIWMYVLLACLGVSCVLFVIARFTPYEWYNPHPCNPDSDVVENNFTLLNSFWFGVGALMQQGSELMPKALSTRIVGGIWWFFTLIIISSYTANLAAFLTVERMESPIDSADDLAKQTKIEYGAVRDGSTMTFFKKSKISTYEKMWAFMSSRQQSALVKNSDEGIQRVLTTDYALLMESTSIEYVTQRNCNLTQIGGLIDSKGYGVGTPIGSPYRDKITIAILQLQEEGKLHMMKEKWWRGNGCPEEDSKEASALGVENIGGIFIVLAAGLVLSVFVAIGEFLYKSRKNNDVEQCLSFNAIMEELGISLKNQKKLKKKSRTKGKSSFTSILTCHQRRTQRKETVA

N[C@@H](C[C@]1(C(=O)O)C[C@H]2OC[C@@H](O)C[C@H]2O1)C(=O)O [8-deoxy-neoDH]
Ki [1]: 2 nM

N[C@@H](C[C@@]1(C(=O)O)CC2OCC(O)C(O)C2O1)C(=O)O (single isomer, unassigned) [4-epi-neoDH, 4-epi-neodysiherbaine]
agonist or antagonist at GluR6 (electrophysiology) [2]: GluR5/GluR6 antagonist

N[C@@H](C[C@]1(C(=O)O)C[C@H]2OCCC[C@H]2O1)C(=O)O [MSVIII-19, 8,9-dideoxy-neoDH]
Ki [3]: > 100000 nM
Ki [4]: > 100000 nM
Ki [5]: 128 nM
Ki [6]: > 100000 nM
